Values of other authors in patent US6641838B2, “Effervescent drug delivery system for oral administration” (Cima Labs Inc., priority 1998, dated 2003).

Settings: in vivo, po

| Molecule | Bioavailability (%) | average bioavailability | range of bioavailability (inter- and intrasubject variability) |
| --- | --- | --- | --- |
| CNC1(c2ccccc2Cl)CCCCC1=O (stereo not shown) [Ketamine] | 20 ± 7% |  |  |
| Oc1ccc2c3c1O[C@H]1[C@@H](O)CC[C@@]4(O)[C@@H](C2)N(CC2CCC2)CC[C@]314 [Nalbuphine] | 25 ± 16% | approximately 17% | 6-40% |
| CN(C)C(=O)Oc1ccc[n+](C)c1 [Pyridostigmine] | 14 ± 3% |  |  |
| Methyldopa | 25 ± 16% | 25% |  |

Same assay, conditions: orally administered drug, conventional dosage forms; examples of drugs with poor bioavailability

| Molecule | Bioavailability (%) |
| --- | --- |
| Nc1nc2c(ncn2COCCO)c(=O)[nH]1 [Acyclovir] | 15 − 30% |
| CC(=O)OC[C@H]1O[C@@H]([S-])[C@H](OC(C)=O)[C@@H](OC(C)=O)[C@@H]1OC(C)=O.CCP(CC)CC.[Au+] [Auranofin] | 15 − 25% |
| CC[N+](C)(C)Cc1ccccc1Br [Bretylium] | 23 ± 9% |
| Nc1ccn([C@@H]2O[C@H](CO)[C@@H](O)[C@@H]2O)c(=O)n1 [Cytarabine] | 20% |
| CN(C)CCC=C1c2ccccc2COc2ccccc21 [Doxepin] | 27 ± 10% |
| NNc1nncc2ccccc12 [Hydralazine] | 16 − 35% |
| CC(CCc1ccccc1)NCC(O)c1ccc(O)c(C(N)=O)c1 (stereo not shown) [Labetalol] | 18 ± 5% |
| Sc1ncnc2nc[nH]c12 [Mercaptopurine] | 12 ± 7% |
| C=CCN1CC[C@]23c4c5ccc(O)c4O[C@H]2C(=O)CC[C@@]3(O)[C@H]1C5 [Naloxone] | 2% |
| CC(=O)CCCCn1c(=O)c2c(ncn2C)n(C)c1=O [Pentoxifylline] | 19 ± 13% |
| Cc1cc2nc3c(=O)[nH]c(=O)nc-3n(C[C@H](O)[C@H](O)[C@H](O)CO)c2cc1C [Riboflavin] | 11% |
| CC(C)(C)NCC(O)c1cc(O)cc(O)c1 (stereo not shown) [Terbutaline] | 14 ± 2% |
